# Data from PMC7902338 (Pharmaceutical Research, 2021).
# Like-named read-outs stand apart in the source and are kept apart here.
# Tests used:
# [1] = cited from earlier work
# [2] = tested on: human P-glycoprotein (P-gp/ABCB1); settings: cited from earlier work
# CYP2D6 [3] = settings: cimetidine ref 39; metoclopramide ref 10, 11; cited from earlier work
# CYP2D6 [4] = tested on: CYP2D6; design: method as in PMID 21740075; settings: orally administered, humans, estimated; cited from earlier work
# [5] = single oral or intravenous dose; cited from earlier work
# human OCT1 = settings: cited from earlier work
# mouse OCTs = settings: read-out: inhibition constant Ki; cited from earlier work
# mouse MATEs = settings: read-out: inhibition constant Ki; cited from earlier work
# [6] = mean ± SD
# Protocol: Blood was centrifuged to obtain plasma, the liver and the kidneys were removed and urine was collected. Proteins were precipitated by the addition of acetonitrile (1 μL/μL plasma; 1000 μL for the liver, 200 μL for the kidneys and 0.5 μL/μL urine). All solutions were vortexed and centrifuged. […] Detection was performed by placing the TLC plates on multisensitive phosphor screens (PerkinElmer Life Sciences, Waltham, MA). The screens were scanned at 300 dpi resolution using a PerkinElmer Cyclone® Plus Phosphor Imager (Perkin-Elmer Life Sciences).
# (§1) PET imaging was performed under isoflurane/air anesthesia and animals were warmed throughout the experiment while constantly monitoring body temperature and respiratory rate. A microPET Focus220 scanner (Siemens Medical Solutions, Knoxville, TN, USA) was used for PET imaging. […] List mode data were acquired with a timing window of 6 ns and an energy window of 250–750 keV. At the end of the PET scans, blood was collected from the retro-bulbar plexus and animals were killed by cervical dislocation. Blood was centrifuged to obtain plasma and aliquots of blood and plasma were counted for radioactivity in a gamma counter.
# [7] = tested on: cation transporters (OCTs, MATEs); assay: [^11C]Metoclopramide PET in C57BL/6 wild-type mice without and with unlabeled metoclopramide, cimetidine or sulpiride
# Protocol: as §1
# Using the medical image data examiner software AMIDE ([33]), the left ventricle of the heart (image-derived arterial blood curve), brain, liver, left kidney and urinary bladder were manually outlined as regions of interest on the PET images, guided by representative magnetic resonance images obtained for a few animals on a 1-T benchtop MR scanner (ICON; Bruker BioSpin GmbH), to derive concentration-time curves expressed in units of percent injected dose per mL (%ID/mL).
# The area under the concentration-time curves (AUC, %ID/mL x min) was calculated for each region of interest using Prism 8 Software (GraphPad, La Jolla, CA, USA). […] VE is the y-intercept of the integration plot. CLint,urine was obtained by performing linear regression analysis of a plot of Xint,urine versus AUC0-t,kidney and calculating the slope of the regression line.
# The plasma concentration was obtained by multiplying the concentration in the left ventricle of the heart by the plasma/blood radioactivity ratio, determined from the blood sample collected at the end of the PET scan.
# [8] = C57BL/6 female mice, baseline, 15 min after radiotracer injection
# [9] = C57BL/6 female mice, cimetidine (150 mg/kg), 15 min
# [10] = FVB male/female Slc22a1/2^(−/−) mice, 15 min
# [11] = FVB male/female wild-type mice, 15 min
# [12] = integration plot 0.4 to 4 min, range over baseline and treatment groups, C57BL/6 mice
smiles,measurement,setting,value
CCN(CC)CCNC(=O)c1cc(Cl)c(N)cc1OC [metoclopramide],pKa,[1],9.71
same,Fraction in protonated form,[1]; physiological pH,more than 99%
same,Substrate of human P-gp,[2],weak substrate
same,CYP2D6 inhibition,CYP2D6 [3],potent inhibitor
same,Share of total clearance accounted for by CYP2D6 metabolism,CYP2D6 [4],44%
same,Fraction of dose excreted unchanged in urine,[5],Approximately 20%
same,Share of cellular uptake related to OCT1 activity,human OCT1; human OCT1 transfected cell line,45%
same,Substrate of human OCT1,human OCT1; in vitro,substrate
CN/C(=N/CCSCc1nc[nH]c1C)NC#N [cimetidine],CYP2D6 inhibition,CYP2D6 [3],potent
same,Ki,mouse OCTs,54 to 143 µM
same,Ki,mouse MATEs,1000 to 4000 nM
CCN(CC)CCNC(=O)c1cc(Cl)c(N)cc1O[11CH3] [[^11C]metoclopramide],Percentage of unchanged [^11C]metoclopramide in kidney,[6]; [8],64 ± 6%
same,Percentage of unchanged [^11C]metoclopramide in urine,[6]; [8],29 ± 4%
same,Percentage of unchanged [^11C]metoclopramide in kidney,[6]; [9],96 ± 2 %
same,Percentage of unchanged [^11C]metoclopramide in urine,[6]; [9],87 ± 4 %
same,Percentage of unchanged [^11C]metoclopramide in kidney,"[6]; C57BL/6 female mice, co-administration of unlabeled metoclopramide (5 mg/kg), 15 min",74 ± 4%
same,Percentage of unchanged [^11C]metoclopramide in urine,"[6]; C57BL/6 female mice, sulpiride (25 mg/kg), 15 min",36 ± 5%
same,Percentage of unchanged [^11C]metoclopramide in kidney,[6]; [10],72 ± 8%
same,Percentage of unchanged [^11C]metoclopramide in urine,[6]; [10],48 ± 10%
same,Percentage of unchanged [^11C]metoclopramide in kidney,[6]; [11],70 ± 20%
same,Percentage of unchanged [^11C]metoclopramide in urine,[6]; [11],64 ± 22%
same,Maximum amount of radioactivity in the kidneys,"[7]; C57BL/6 wild-type mice, assuming average mouse organ volumes from literature",approximately 17 % of the injected dose
same,Time to maximum concentration of radioactivity in the kidneys and liver,"[7]; C57BL/6 wild-type mice, i.v. microdose",≤ 5 min
same,Amount of radioactivity excreted into the urinary bladder,[7]; end of the 90-min PET scan,approximately 45 % of the injected dose
same,"kuptake,kidney (rate constant for uptake of total radioactivity from blood into the kidneys)",[7]; [12],0.5–1 mL/min/mL kidney
same,"kuptake,liver (rate constant for uptake of total radioactivity from blood into the liver)",[7]; [12],0.2–0.6 mL/min/mL liver
same,Decrease of urinary excretion,"[7]; the different investigated treatments vs baseline, wild-type mice",up to 3.8 fold
